From patent US7049311B1, “Pyrrolbenzodiazepines” (Spirogen Limited, priority 1998, dated 2006)
Where two headings read alike, the source gives them in different places.

What was measured:
RXF 393 = assay: NCI in vitro cytotoxicity screen; assay type: cell-based; conditions: Homo sapiens, RXF 393, 48 h, read-out: LC50
Method: (§1) The National Cancer Institute (NCI), Bethesda, Md., USA has available an in vitro cytotoxicity screen which consists of approximately 60 human tumour cell lines against which compounds are tested at a minimum of five concentrations each differing 10-fold. A 48 hour continuous exposure protocol is used, where cell viability or growth is estimated with an SRB protein assay.
(§2) The test compounds were evaluated against approximately 60 human tumour cell lines. The NCI screening procedures were described in detail by Monks and co-workers (Monks, A et al., Journal of the National Cancer Institute, 1991, 83, 757). Briefly, cell suspensions were diluted according to the particular cell type and the expected target cell density (5000-40,000 cells per well based on cell growth characteristics), and added by pipette (100 μL) into 96-well microtitre plates. The cells were allowed a preincubation period of 24 hours at 37° C. for stabilisation. Dilutions at twice the intended test concentration were added at time zero in 100 μL aliquots to the wells. The test compounds were evaluated at five 10-fold dilutions (10^−4, 10^−5, 10^−6, 10^−7 and 10^−[…]). The test compounds were incubated for 48 hours in 5% CO2 atmosphere and 100% humidity. The cells were then assayed using the sulphorhodamine B assay. A plate reader was used to read the optical densities and a microcomputer processed the readings into LC50 values, which is the dosage required to kill half of the cells.

SK-MEL-28 = assay: NCI in vitro cytotoxicity screen; assay type: cell-based; conditions: Homo sapiens, SK-MEL-28, 48 h, read-out: LC50
Method: as §1, §2

NCI-H522 = assay: NCI in vitro cytotoxicity screen; assay type: cell-based; conditions: Homo sapiens, NCI-H522, 48 h, read-out: LC50
Method: as §1, §2

SK-MEL-2 = assay: NCI in vitro cytotoxicity screen; assay type: cell-based; conditions: Homo sapiens, SK-MEL-2, 48 h, read-out: LC50
Method: as §1, §2

MALME-3M = assay: NCI in vitro cytotoxicity screen; assay type: cell-based; conditions: Homo sapiens, Malme-3M, 48 h, read-out: LC50
Method: as §1, §2

SNB-75 = assay: NCI in vitro cytotoxicity screen; assay type: cell-based; conditions: Homo sapiens, SNB-75, 48 h, read-out: LC50
Method: as §1, §2

MDA-MB-435 = assay: NCI in vitro cytotoxicity screen; assay type: cell-based; conditions: Homo sapiens, MDA-MB-435, 48 h, read-out: LC50
Method: as §1, §2

HS 578T = assay: NCI in vitro cytotoxicity screen; assay type: cell-based; conditions: Homo sapiens; HS 578T (Breast), 48 hour exposure, SRB assay; read-out: LC50 (the source's name)
Method: as §1, §2

COLO 205 = assay: NCI in vitro cytotoxicity screen; assay type: cell-based; conditions: Homo sapiens, COLO 205, 48 h, read-out: LC50
Method: as §1, §2

KM12 = assay: NCI in vitro cytotoxicity screen; assay type: cell-based; conditions: Homo sapiens
Method: as §1, §2

A2780cisR = assay: Ovarian carcinoma cytotoxicity assay; assay type: cell-based, human; conditions: Homo sapiens, A2780cisR
Procedure, shortened: (§3)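 Cells attached overnight, then read 96 hours later by sulphorhodamine B staining of TCA-fixed cells, with absorbance at 540 nm. IC50 taken from concentration versus % absorbance relative to untreated wells; cisR lines are cisplatin-resistant.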

A2780 = assay: Ovarian carcinoma cytotoxicity assay; assay type: cell-based, human; conditions: Homo sapiens, A2780; 96 hours, sulphorhodamine B; read-out: IC50 A2780
Procedure, shortened: as §3

LOX IMVI = assay: NCI in vitro cytotoxicity screen; assay type: cell-based; conditions: Homo sapiens, 48 h, read-out: LC50
Method: as §1, §2

MDA-N = assay: NCI in vitro cytotoxicity screen; assay type: cell-based; conditions: Homo sapiens, 48 h, read-out: LC50
Method: as §1, §2

M14 = assay: NCI in vitro cytotoxicity screen; assay type: cell-based; conditions: Homo sapiens, M14, 48 h, read-out: LC50
Method: as §1, §2

SKOV-3 = assay: Ovarian carcinoma cytotoxicity assay; assay type: cell-based; conditions: Homo sapiens, SK-OV-3; 96 hours, sulphorhodamine B; read-out: IC50 Skov3
Procedure, shortened: as §3

CH1cisR = assay: Ovarian carcinoma cytotoxicity assay; assay type: cell-based; conditions: Homo sapiens, CH1cisR; cisplatin-resistant, 96 hours, sulphorhodamine B; read-out: IC50 CH1cisR
Procedure, shortened: as §3

CH1 = assay: Ovarian carcinoma cytotoxicity assay; assay type: cell-based; conditions: Homo sapiens
Procedure, shortened: as §3

HCC-2998 = assay: NCI in vitro cytotoxicity screen; assay type: cell-based; conditions: Homo sapiens, HCC 2998, 48 h, read-out: LC50
Method: as §1, §2

SK-MEL-5 = assay: NCI in vitro cytotoxicity screen; assay type: cell-based; conditions: Homo sapiens, SK-MEL-5, 48 h, read-out: LC50
Method: as §1, §2

NCI-H23 = assay: NCI in vitro cytotoxicity screen; assay type: cell-based; conditions: Homo sapiens, NCI-H23, 48 h, read-out: LC50
Method: as §1, §2

UACC-62 = assay: NCI in vitro cytotoxicity screen; assay type: cell-based; conditions: Homo sapiens, UACC-62, 48 h, read-out: LC50
Method: as §1, §2

UACC-257 = assay: NCI in vitro cytotoxicity screen; assay type: cell-based; conditions: Homo sapiens, UACC-257, 48 h, read-out: LC50
Method: as §1, §2

[1] = tested on: human tumour cells cultivated in hollow fibres implanted in mice; assay: NCI Hollow Fibre Assay; assay type: in vivo
From the text: The Biological testing Branch of the Developmental Therapeutics Program of the NCI has adopted a preliminary in vivo screening tool for assessing the potential anticancer activity of compounds identified by the large scale in vitro cell screen. For these assays, human tumour cells are cultivated in polyvinylidene (PVDF) hollow fibres, and a sample of each cell line is implanted into each of two physiologic compartments (intraperitoneal and subcutaneaous) in mice. Each test mouse received a total of 6 fibres (3 intraperitoneally and 3 subcutaneously) representing 3 distinct cancer cell lines. These mice are treated with potential antitumour compounds at each of 2 test doses by the intraperitoneal route using a QD×4 treatment schedule. Vehicle controls consist of 6 mice receiving the compound diluent only. The fibre cultures are collected on the day following the last day of treatment. To assess anticancer effects, the viable cell mass is determined for each of the cell lines using a formazyn dye (MTT) conversion assay. From this, the % T/C can be calculated using the average optical density of compound treated samples divided by the average optical; density of the vehicle controls. In addition, the net increase in cell mass can be determined for each sample, as a sample of fibre cultures are assessed for viable cell mass on the day of implantation into mice. Thus, the cytostatic and cytocidal capacities of the test compound can be assessed.
Generally, each compound is tested against a minimum of 12 human cancer cell lines. This represents a total of 4 experiments since each experiment contains 3 cell lines. The data are reported as % T/C for each of the 2 compound doses against each of the cell lines with separate values calculated for the intraperitoneal and subcutaneous samples.
Compounds are selected for further in vivo testing in standard subcutaneous xenograft models on the basis of several hollow fibre assay criteria. These include: (1) a % T/C of 50 or less in 10 of the 48 possible test combinations (12 cell lines×2 sites×2 Compound doses); (2) activity at a distance (intraperitoneal drug/subcutaneous culture) in a minimum of 4 of the 24 possible combinations; and/or (3) a net cell kill of 1 or more of the cell lines in either implant site. To simplify evaluation, a points system has been adopted which allows rapid evaluation of the activity of a given compound. For this, a value of 2 is assigned for each compound dose which results in a 50% or greater reduction in viable cell mass. The intraperitoneal and subcutaneous samples are scored separately so that criteria (1) and (2) can be evaluated. Compounds with a combined IP+SC score of 20, a SC score of 8 or a net cell kill of one or more cell lines are referred for xenograft testing. […] In addition to these criteria, other factors (e.g. unique structure, mechanism of action) may result in referral of a compound for xenograft testing without the compound meeting these criteria.

NCI-H226 = assay: NCI in vitro cytotoxicity screen; assay type: cell-based; conditions: Homo sapiens, NCI-H226, 48 h, read-out: LC50
Method: as §1, §2

SF-539 = assay: NCI in vitro cytotoxicity screen; assay type: cell-based; conditions: Homo sapiens, SF-539, 48 h, read-out: LC50
Method: as §1, §2

NCI-H460 = assay: NCI in vitro cytotoxicity screen; assay type: cell-based; conditions: Homo sapiens, NCI-H460, 48 h, read-out: LC50
Method: as §1, §2

786-0 = assay: NCI in vitro cytotoxicity screen; assay type: cell-based; conditions: Homo sapiens, 786-0, 48 h, read-out: LC50
Method: as §1, §2

HCT-116 = assay: NCI in vitro cytotoxicity screen; assay type: cell-based; conditions: Homo sapiens, HCT-116, 48 h, read-out: LC50
Method: as §1, §2

[2] = cisplatin-resistant, 96 hours, sulphorhodamine B, read-out: IC50 A2780cisR
[3] = CH1, 96 hours, sulphorhodamine B, read-out: IC50 CH1

Compound | CC50 (RXF 393) [µM] | CC50 (SK-MEL-28) [µM] | CC50 (NCI-H522) [µM] | CC50 (SK-MEL-2) [µM] | CC50 (MALME-3M) [µM] | CC50 (MDA-MB-435) [µM] | CC50 (COLO 205) [µM] | IC50 (A2780cisR; [2]) [nM] | IC50 (A2780) [nM] | CC50 (MDA-N) [µM] | CC50 (M14) [µM] | IC50 (SKOV-3) [nM] | IC50 (CH1cisR) [nM] | IC50 (CH1; [3]) [nM] | CC50 (HCC-2998) [µM] | CC50 (SK-MEL-5) [µM] | CC50 (UACC-62) [µM] | other results
Nc1ccc2c(c1)N=C[C@@H]1CCCN1C2=O [UP2028 (151), (11aS)-8-amino-1,2,3,11a-tetrahydro-5H-pyrrolo[2,1-c][1,4]benzodiazepin-5-one] | 0.7 | 8.1 | 0.8 | 5.4 | 5.7 | 7.2 | 5 |  |  |  |  |  |  |  |  |  |  | CC50 (SNB-75): 8.2 µM; CC50 (HS 578T): 9.2 µM; CC50 (KM12; KM12 (Colon), 48 hour exposure, SRB assay, read-out: LC50 (the source's name)): 8.8 µM
COc1ccc2c(c1)C(=O)N1CCC[C@H]1C=N2 (stereo in doubt) [UP2068 (96), 7-methoxy-1,2,3,11a-tetrahydro-5H-pyrrolo[2,1-c][1,4]benzodiazepin-5-one] | 6.3 | 9.6 | 8.5 | 8.1 | 8.3 | 8.3 |  | 660 | 470 | 6.3 | 6.5 | 760 | 420 | 520 |  |  |  | CC50 (LOX IMVI): 9.7 µM
C=C1C[C@H]2C=Nc3cc(OCc4ccccc4)c(OC)cc3C(=O)N2C1 [UP2004 (70), (11aS)-8-Benzyloxy-7-methoxy-2-methylidene-1,2,3,11a-tetrahydro-5H-pyrrolo[2,1-c][1,4]benzodiazepin-5-one] |  |  |  |  |  |  | 3.9 | 200 | 29 | 9 |  | 350 | 82 | 17 | 5.5 | 7.8 | 5.3 | CC50 (NCI-H23): 7.6 µM; CC50 (UACC-257): 7.3 µM; Total score ([1]; combined IP+SC score): 18; IP score ([1]; intraperitoneal fibres, 2 points per dose giving 50% or greater reduction in viable cell mass): 8; SC score ([1]; subcutaneous fibres, 2 points per dose giving 50% or greater reduction in viable cell mass): 10
C=C1C[C@H]2C=Nc3ccc(I)cc3C(=O)N2C1 [UP2023 (64), (11as)-7-Iodo-2-methylidene-1,2,3,11a-tetrahydro-5H-pyrrolo[2,1-c][1,4]benzodiazepin-5-one] | 6.1 | 8.4 | 5.2 | 7.4 | 7.8 | 7.6 | 5.8 | 1450 | 490 | 6.6 |  | 16000 | 430 | 370 | 7 | 6 | 7.2 | CC50 (NCI-H226): 9.1 µM; CC50 (SF-539): 9.4 µM; CC50 (KM12; KM12, 48 h, read-out: LC50): 7.1 µM
COc1cc2c(cc1OCc1ccccc1)N=C[C@@H]1CC(CCO)=CN1C2=O [UP2052 (33)] |  |  | 3.1 | 0.5 |  |  |  |  | 70 |  | 2.7 | 105 | 37 |  | 0.8 |  |  | IC50 (A2780cisR; 96 h, read-out: IC50 A2780cisR, cisplatin-resistant, 96 hours, sulphorhodamine B): 105 nM; CC50 (NCI-H460): 3000 nM; CC50 (786-0): 3000 nM; CC50 (HCT-116): 1100 nM; IC50 (CH1; CH1, 96 h, read-out: IC50 CH1, 96 hours, sulphorhodamine B): 90 nM
